Experimental findings from patent US20220242863A1, “COMPOUNDS FOR TREATMENT OF EYE DISORDERS” (SINOPSEE THERAPEUTICS, priority 2019, published 2022) are described below.

Like-named read-outs stand apart in the source and are kept apart here.

The test system of experiment [1] is BA/F3 cells expressing FIt3. As to the kind of experiment: Cell viability by MTS assay (MTS Assay 2). Format: cell-based. The settings on record: Mus musculus, BaF3, concentration required to reduce cell viability to 50%, 20-48 hrs. As to the method: (§1) The effect of the compounds on cell viability were determined using MTS assay. MTS Cell Proliferation Assay Kit is a colorimetric method for sensitive quantification of viable cells in proliferation and cytotoxicity assay. The method is based on the reduction of MTS tetrazolium compound by viable cells to generate a colored formazan product that is soluble in cell culture media. BA/F3 cells expressing the receptor tyrosine kinase (either PDGFR [MTS Assay 1] or FIt3 [MTS Assay 2]) were cultured in standard culture conditions in a 96-well microtiter plate (final volume of 200 μl/well) in the absence or presence of the compound to be tested and were incubated for 20-48 hrs. MTS Reagent (20 μl/well) was added into each well & incubated for 0.5-4 hours at 37° C. in standard culture conditions. Absorbance at 490 nm was recorded using a plate reader.
(§2) Results are shown in FIGS. 2 and 3 and Table 2 (where IC50 indicates the concentration of compound required to reduce cell viability to 50%).
In Table 3: • L represents an IC50 of less than 500 nM • M represents an IC50 of between 500 nM and 5000 nM • H represents an IC50 of more than 5000 nM • For the MTS Assay, the result indicates the concentration of compound required to reduce cell viability to 50%.
Background: Tetrazolium dyes change colour on reduction, which living cells bring about.

The target in experiment [2] is T1, PDGFRβ (Homo sapiens, UniProt P09619). The experiment is described as follows: Western blot of PDGFRβ autophosphorylation and Shp2 phosphorylation in HEK293 cell line model. In kind it is cell-based. Further details: expressed in transfected cells; host or cells: HEK293. The settings on record: HEK293 cells expressing PDGFRβ, 20 ng/ml PDGF; FIG. 1. As to the method:
Human Embryonic kidney cells (HEK293) were constructed to express human PDGFRWT under the control of constitutive CMV promoter. Cells were grown in the presence of 20 ng/ml PDGF (the ligand for the PDGFRβ) to activate the PDGFRβ. Different concentrations of the compounds of Examples 1 and 2 were added to study their effect on the PDGFRβ-mediated signaling. Autophosphorylation of PDGFRβ and Shp2 phosphorylation were monitored by Western blotting and were used as the markers for PDGFRβ signaling. β-Actin was used as an internal control.

For experiment [3], the target named is CDK8 (Homo sapiens, UniProt P49336). As to the kind of experiment: In vitro kinase assay ([γ-33P]-ATP). Format: biochemical. The settings on record: ATP at apparent Km of the kinase. As to the method:
(§3) To determine the inhibitory activity of compounds, in vitro kinase assays were performed on respective enzymes purified from Sf9 insect cells or E. coli as recombinant GST-fusion proteins or His-tagged proteins.

For experiment [4], the target named is T2, Flt3 (Homo sapiens, UniProt P36888).
T2 sequence (P36888 27-993): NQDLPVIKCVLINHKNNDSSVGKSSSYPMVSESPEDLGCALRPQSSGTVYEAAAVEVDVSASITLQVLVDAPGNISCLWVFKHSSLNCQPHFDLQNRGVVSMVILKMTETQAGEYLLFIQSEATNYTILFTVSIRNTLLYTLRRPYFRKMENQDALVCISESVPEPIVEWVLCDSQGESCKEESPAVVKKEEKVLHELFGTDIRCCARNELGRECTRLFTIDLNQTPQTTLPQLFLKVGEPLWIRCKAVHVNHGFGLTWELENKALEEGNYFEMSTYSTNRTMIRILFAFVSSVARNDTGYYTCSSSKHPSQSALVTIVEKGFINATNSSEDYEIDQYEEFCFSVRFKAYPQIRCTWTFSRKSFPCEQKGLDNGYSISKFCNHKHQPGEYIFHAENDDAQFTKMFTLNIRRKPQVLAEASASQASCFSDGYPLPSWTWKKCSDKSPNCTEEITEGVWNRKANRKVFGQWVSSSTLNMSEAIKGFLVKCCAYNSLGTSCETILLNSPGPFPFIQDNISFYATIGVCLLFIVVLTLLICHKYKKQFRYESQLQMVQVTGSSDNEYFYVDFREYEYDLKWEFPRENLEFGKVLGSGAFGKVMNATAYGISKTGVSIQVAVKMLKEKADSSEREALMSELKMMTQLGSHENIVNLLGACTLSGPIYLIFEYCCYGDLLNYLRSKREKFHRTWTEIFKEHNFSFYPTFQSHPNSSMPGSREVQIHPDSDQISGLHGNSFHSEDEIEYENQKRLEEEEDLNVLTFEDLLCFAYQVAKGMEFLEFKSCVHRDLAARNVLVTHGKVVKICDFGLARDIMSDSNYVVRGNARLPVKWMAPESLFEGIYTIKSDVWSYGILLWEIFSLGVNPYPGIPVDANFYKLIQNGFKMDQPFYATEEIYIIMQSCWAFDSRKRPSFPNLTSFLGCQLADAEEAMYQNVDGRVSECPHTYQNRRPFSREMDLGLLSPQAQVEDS
As to the kind of experiment: In vitro kinase assay ([γ-33P]-ATP). Format: biochemical. The settings on record: ATP at apparent Km of the kinase. As to the method:
as §3

Experiment [5] concerns the target CDK19 (Homo sapiens, UniProt Q9BWU1). The experiment is described as follows: In vitro kinase assay ([γ-33P]-ATP). In kind it is biochemical. Conditions: ATP at apparent Km of the kinase. As to the method:
as §3

The target of experiment [6] is T1, PDGFRβ. The experiment is described as follows: In vitro kinase assay ([γ-33P]-ATP). Format: biochemical. Conditions: ATP at apparent Km of the kinase. As to the method: as §3
Experiment [7] deals with VEGFR-2 (Homo sapiens, UniProt P35968). The experiment is described as follows: In vitro kinase assay ([γ-33P]-ATP). In kind it is biochemical. Conditions: ATP at apparent Km of the kinase. As to the method: as §3
The target in experiment [8] is PDGFR-α (Homo sapiens, UniProt P16234). As to the kind of experiment: In vitro kinase assay ([γ-33P]-ATP). In kind it is biochemical. Conditions: ATP at apparent Km of the kinase. As to the method:
as §3

In experiment [9] the test system is BA/F3 cells expressing PDGFR. As to the kind of experiment: Cell viability by MTS assay (MTS Assay 1). Format: cell-based. Conditions: for Activity in MTS cell viability assay compared to imatinib and quizartinib controls: Ba/F3 cells expressing PDGFR, FIG. 2. As to the method:
as §1, §2
For the MTS Assay, the result indicates the concentration of compound required to reduce cell viability to 50%.

[10] abbreviates: Mus musculus, BaF3, concentration required to reduce cell viability to 50%, BA/F3 cells expressing PDGFR, 20-48 hrs, read-out: IC50 (nM) MTS Assay 1.

For orientation: IC50 means the concentration at which inhibition is half-maximal.

Chain of VEGFR-2 (P35968 20-1356): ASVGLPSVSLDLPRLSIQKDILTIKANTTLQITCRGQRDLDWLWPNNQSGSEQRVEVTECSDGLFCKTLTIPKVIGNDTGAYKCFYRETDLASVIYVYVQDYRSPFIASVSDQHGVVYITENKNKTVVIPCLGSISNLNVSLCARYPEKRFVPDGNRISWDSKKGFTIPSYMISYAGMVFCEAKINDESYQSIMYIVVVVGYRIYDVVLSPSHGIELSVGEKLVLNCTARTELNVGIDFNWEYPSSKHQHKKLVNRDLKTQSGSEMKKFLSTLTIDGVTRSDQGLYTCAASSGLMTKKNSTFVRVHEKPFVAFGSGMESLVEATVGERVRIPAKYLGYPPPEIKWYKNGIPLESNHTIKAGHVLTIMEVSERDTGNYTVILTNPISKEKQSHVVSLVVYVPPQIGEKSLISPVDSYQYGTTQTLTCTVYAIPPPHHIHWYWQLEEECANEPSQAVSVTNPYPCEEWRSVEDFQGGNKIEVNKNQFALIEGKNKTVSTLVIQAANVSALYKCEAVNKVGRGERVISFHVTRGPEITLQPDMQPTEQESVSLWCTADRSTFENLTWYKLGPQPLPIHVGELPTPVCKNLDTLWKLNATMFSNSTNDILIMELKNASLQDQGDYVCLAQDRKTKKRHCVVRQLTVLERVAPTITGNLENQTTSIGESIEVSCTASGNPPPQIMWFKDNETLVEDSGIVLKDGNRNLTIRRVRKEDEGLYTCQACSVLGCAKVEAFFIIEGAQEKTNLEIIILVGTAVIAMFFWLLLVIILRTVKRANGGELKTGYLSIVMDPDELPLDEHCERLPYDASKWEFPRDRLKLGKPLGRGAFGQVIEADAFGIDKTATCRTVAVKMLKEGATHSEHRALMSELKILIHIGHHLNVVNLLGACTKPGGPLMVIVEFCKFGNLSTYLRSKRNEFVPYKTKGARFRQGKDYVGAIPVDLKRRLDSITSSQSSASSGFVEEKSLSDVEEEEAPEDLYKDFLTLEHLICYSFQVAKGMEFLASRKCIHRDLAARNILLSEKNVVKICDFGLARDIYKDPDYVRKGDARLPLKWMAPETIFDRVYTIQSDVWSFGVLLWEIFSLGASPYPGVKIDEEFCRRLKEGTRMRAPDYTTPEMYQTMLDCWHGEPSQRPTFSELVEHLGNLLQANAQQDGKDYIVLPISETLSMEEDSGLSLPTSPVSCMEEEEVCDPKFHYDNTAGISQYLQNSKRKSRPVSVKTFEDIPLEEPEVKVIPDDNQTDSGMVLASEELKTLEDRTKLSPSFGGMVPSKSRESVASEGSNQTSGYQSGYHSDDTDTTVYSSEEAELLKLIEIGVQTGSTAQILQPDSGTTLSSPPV
Chain of PDGFR-α (P16234 24-1089): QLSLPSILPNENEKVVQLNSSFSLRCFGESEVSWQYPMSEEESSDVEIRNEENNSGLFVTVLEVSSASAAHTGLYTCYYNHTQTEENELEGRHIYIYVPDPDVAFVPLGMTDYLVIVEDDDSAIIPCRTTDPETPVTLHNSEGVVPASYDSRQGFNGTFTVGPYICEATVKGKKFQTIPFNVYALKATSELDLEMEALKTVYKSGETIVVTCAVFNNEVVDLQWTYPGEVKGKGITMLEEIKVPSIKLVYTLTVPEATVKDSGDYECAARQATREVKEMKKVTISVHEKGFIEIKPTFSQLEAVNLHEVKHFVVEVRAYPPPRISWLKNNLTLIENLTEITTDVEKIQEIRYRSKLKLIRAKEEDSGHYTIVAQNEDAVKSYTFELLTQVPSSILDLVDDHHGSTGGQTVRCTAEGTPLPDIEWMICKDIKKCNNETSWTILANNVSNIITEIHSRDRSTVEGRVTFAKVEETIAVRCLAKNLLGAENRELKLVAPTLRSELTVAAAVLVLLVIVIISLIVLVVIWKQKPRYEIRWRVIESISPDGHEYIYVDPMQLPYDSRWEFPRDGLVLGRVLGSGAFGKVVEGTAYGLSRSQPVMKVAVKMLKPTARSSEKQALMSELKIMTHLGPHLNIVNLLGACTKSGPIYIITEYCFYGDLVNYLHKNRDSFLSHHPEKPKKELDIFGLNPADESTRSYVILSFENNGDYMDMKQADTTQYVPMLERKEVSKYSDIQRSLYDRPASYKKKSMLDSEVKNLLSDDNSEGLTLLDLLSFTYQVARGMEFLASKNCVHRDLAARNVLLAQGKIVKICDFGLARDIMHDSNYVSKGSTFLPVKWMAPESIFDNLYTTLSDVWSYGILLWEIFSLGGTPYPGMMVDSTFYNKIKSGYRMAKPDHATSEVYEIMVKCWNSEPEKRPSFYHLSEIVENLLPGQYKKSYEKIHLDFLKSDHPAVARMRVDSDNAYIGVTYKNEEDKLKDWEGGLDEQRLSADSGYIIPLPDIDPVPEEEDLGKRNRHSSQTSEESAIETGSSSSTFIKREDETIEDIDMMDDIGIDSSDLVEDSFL
T1 sequence (P09619 33-1106): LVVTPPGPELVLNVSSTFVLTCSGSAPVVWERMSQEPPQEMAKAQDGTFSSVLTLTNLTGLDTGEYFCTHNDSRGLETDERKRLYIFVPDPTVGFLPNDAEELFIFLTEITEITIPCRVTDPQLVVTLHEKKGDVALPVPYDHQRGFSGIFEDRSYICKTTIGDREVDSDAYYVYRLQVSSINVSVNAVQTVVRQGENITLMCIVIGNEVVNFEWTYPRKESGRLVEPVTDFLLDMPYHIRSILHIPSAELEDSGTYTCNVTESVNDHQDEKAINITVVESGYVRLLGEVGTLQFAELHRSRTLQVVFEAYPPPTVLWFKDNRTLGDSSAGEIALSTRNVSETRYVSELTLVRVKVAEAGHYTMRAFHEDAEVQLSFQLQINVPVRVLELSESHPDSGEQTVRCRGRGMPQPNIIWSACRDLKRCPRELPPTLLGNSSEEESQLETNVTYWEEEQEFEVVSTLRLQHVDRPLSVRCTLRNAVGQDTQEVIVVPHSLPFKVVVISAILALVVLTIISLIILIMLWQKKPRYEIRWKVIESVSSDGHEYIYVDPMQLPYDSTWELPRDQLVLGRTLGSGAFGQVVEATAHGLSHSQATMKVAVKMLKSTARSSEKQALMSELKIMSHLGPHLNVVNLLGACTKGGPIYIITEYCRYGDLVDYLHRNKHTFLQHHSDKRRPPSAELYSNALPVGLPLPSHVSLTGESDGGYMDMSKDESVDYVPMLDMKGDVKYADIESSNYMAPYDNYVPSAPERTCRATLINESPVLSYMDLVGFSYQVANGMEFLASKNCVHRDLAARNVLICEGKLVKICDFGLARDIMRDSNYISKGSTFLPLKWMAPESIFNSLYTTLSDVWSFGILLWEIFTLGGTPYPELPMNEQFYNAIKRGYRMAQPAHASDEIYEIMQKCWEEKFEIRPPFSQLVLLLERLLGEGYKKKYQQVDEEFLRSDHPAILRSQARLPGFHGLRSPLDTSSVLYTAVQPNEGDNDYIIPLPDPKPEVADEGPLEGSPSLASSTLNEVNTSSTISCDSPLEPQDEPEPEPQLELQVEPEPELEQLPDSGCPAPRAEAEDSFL
Chain of CDK19 (Q9BWU1 whole entry, species assumed): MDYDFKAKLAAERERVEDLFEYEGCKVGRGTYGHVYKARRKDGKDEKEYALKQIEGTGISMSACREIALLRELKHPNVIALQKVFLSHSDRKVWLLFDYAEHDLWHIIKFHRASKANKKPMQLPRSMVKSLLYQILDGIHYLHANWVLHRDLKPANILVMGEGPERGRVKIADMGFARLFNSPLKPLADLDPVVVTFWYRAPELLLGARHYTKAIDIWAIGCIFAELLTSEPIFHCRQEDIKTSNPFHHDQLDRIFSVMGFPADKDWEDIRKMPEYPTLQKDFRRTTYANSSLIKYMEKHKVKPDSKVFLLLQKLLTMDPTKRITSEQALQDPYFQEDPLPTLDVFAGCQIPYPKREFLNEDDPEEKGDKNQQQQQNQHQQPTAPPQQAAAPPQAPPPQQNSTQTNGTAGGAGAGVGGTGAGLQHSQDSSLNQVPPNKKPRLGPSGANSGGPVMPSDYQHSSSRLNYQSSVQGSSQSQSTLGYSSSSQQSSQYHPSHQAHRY
Chain of CDK19 (P24863 whole entry partner, species assumed): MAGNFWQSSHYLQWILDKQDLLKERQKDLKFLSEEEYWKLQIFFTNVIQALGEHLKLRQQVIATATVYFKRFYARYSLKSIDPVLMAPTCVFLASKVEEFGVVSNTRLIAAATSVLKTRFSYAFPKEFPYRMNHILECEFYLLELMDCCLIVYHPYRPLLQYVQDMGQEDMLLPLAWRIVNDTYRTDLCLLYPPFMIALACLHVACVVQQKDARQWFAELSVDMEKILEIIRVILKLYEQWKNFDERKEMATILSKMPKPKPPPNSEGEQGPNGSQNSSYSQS
Chain of CDK8 (P49336 whole entry, species assumed, the tested form may be a part): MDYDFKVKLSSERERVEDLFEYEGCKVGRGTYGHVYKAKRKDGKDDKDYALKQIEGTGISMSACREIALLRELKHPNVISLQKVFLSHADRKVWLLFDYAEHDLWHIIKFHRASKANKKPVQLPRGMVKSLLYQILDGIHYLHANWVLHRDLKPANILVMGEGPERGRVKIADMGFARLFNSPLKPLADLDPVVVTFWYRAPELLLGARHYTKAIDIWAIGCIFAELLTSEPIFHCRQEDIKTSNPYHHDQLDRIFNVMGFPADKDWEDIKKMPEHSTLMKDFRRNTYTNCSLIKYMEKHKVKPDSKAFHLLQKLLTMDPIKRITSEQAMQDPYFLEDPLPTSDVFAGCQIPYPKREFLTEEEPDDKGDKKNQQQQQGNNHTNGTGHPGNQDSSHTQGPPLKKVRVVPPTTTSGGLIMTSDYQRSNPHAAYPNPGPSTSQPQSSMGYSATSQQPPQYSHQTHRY
Chain of CDK8 (P24863 whole entry partner, species assumed, the tested form may be a part): as the sequence (P24863 whole entry partner, species assumed) above

As to `Cn1nc(NC(=O)COc2ccc(-c3cnc4ccccn34)cn2)cc1C(F)(F)F` [Example 1], the IC50 in [1], in experiment [3], in experiment [4], in experiment [5], in experiment [6] and in [7] was less than 500 nM in each case. Also, the IC50 is less than 500 nM in experiment [8] and less than 500 nM in [9] (Mus musculus, BaF3, read-out: IC50 (nM) MTS Assay 1). The “Inhibition of PDGFRβ signaling (PDGFRβ autophosphorylation, Shp2 phosphorylation)” value in [2] was “able to inhibit PDGFRβ signaling”. Besides, the “Activity in MTS cell viability assay compared to imatinib and quizartinib controls” value in experiment [9] is “improved activity when compared to the imatinib and quizartinib controls”.
As to `Cc1ccc(NC(=O)COc2ccc(-c3cnc4ccccn34)cn2)cc1C(F)(F)F` [Example 2], in experiment [2], the “Inhibition of PDGFRβ signaling (PDGFRβ autophosphorylation, Shp2 phosphorylation)” value is “able to inhibit PDGFRβ signaling”.
`Cc1cnc(NC(=O)COc2ccc(-c3cnc4cnccn34)cn2)cc1C(F)(F)F` [Example 3]: in experiment [9], the “Activity in MTS cell viability assay compared to imatinib and quizartinib controls” value was “improved activity when compared to the imatinib and quizartinib controls”.
As to `Cn1nc(NC(=O)COc2ccc(-c3cnc4cnccn34)c(F)n2)cc1C(F)(F)F` [Example 6], the results for the IC50 in [1] and in [9] (setting [10]) were less than 500 nM and 500 to 5000 nM, respectively.
With `Cc1ccc(NC(=O)COc2ccc(-c3cnc4cnccn34)c(F)n2)cc1C(F)(F)F` [Example 7], the IC50 in experiment [1] and in [9] (setting [10]) was less than 500 nM throughout.
In the case of `Cn1nc(NC(=O)COc2ccc(-c3cnc4cnccn34)cn2)cc1C(F)(F)F` [Example 9], the IC50 in experiment [3] was less than 500 nM; in experiment [5], less than 500 nM; in [9] (concentration required to reduce cell viability to 50%, BA/F3 cells expressing PDGFR, 20-48 hrs, read-out: IC50 (nM) MTS Assay 1) it was less than 500 nM.
`Cc1ccc(NC(=O)COc2ccc(-c3cnc4ccc(-c5ccc(C(=O)N6CCOCC6)cc5)cn34)cc2)cc1C(F)(F)F` [Example 10]: the IC50 in experiment [9] (setting [10]) is less than 500 nM.
`O=C(Nc1cc(C(F)(F)F)c(Cl)cn1)C1(Oc2ccc(-c3cnc4cnccn34)cn2)CC1` [Example 12]: the IC50 in experiment [3], in [4], in experiment [5], in experiment [6], in experiment [7] and in experiment [8] was greater than 5000 nM in each case.
As to `CC(Oc1ccc(-c2cnc3cnccn23)cn1)C(=O)Nc1cc(C(F)(F)F)c(Cl)cn1` (stereo not drawn) [Example 13], the IC50 in experiment [3] is 500 to 5000 nM; in experiment [4], greater than 5000 nM; in experiment [5], 500 to 5000 nM; in [6] it was 500 to 5000 nM; in [7], 500 to 5000 nM; in [8], 500 to 5000 nM.
`Cc1ccc(NC(=O)c2ccc(Nc3cnc4cnccn34)cc2)cc1C(F)(F)F` [Example 14]: the IC50 was 500 to 5000 nM in experiment [3]; greater than 5000 nM in [4]; 500 to 5000 nM in experiment [5]; greater than 5000 nM in experiment [6]; greater than 5000 nM in experiment [7]; greater than 5000 nM in experiment [8].
Regarding `Cc1ccc(NC(=O)CNc2ccc(-c3cnc4cnccn34)cc2)cc1C(F)(F)F` [Example 15], the IC50 in [1], in experiment [3], in [4], in [5], in experiment [6] and in experiment [7] was less than 500 nM each time. Besides, the IC50 in experiment [8] was less than 500 nM.
Consider `O=C(CNc1ccc(-c2cnc3cnccn23)cc1)Nc1cc(C(F)(F)F)c(Cl)cn1` [Example 16], for which the IC50 in experiment [3], in experiment [4], in experiment [5], in experiment [6], in experiment [7] and in experiment [8] was less than 500 nM throughout.
With `Cn1nc(NC(=O)CNc2ccc(-c3cnc4cnccn34)cc2)cc1C(F)(F)F` [Example 17], the IC50 in experiment [3], in experiment [4], in experiment [5], in experiment [6], in experiment [7] and in experiment [8] was less than 500 nM each time.
Turning to `Cn1nc(NC(=O)CNc2ccc(-c3cnc4cnccn34)c(F)c2)cc1C(F)(F)F` [Example 18], the IC50 in experiment [3], in [4], in [5], in experiment [6], in experiment [7] and in experiment [8] was less than 500 nM in each case.
In the case of `Cn1nc(NC(=O)COc2ccc(-c3cnn4cccnc34)cc2)cc1C(F)(F)F` [Example 19], the IC50 in [3], in [4], in [5], in [6], in experiment [7] and in [8] was less than 500 nM each time.
